Structures are written as SMILES. Where only a bound is given, the exact number is not on record here.

The text below walks through data of ChEMBL document CHEMBL1128564, “Inhibition of monoamine oxidase-B by 5H-indeno[1,2-c]pyridazines: biological activities, quantitative structure-activity relationships (QSARs) and 3D-QSARs” (J Med Chem, 1995).

In test [1] the target is T1, Amine oxidase [flavin-containing] B (Rattus norvegicus, UniProt P19643).
T1 sequence (P19643 whole entry): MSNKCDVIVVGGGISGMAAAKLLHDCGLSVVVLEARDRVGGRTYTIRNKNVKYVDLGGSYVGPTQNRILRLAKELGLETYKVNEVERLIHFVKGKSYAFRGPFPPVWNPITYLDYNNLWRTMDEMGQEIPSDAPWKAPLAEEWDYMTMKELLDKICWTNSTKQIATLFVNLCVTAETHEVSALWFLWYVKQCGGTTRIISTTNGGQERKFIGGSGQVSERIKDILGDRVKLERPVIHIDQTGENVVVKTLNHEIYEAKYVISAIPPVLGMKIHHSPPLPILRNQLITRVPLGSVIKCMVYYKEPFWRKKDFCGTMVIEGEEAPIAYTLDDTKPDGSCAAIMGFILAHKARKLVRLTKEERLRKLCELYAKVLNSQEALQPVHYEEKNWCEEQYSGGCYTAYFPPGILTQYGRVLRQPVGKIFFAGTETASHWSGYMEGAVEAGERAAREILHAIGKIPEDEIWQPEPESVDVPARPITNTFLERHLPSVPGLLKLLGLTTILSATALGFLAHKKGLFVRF
Description: Ability to inhibit Monoamine oxidase B enzyme.

For test [2], the target named is T2, Amine oxidase [flavin-containing] A (Rattus norvegicus, UniProt P21396).
T2 sequence (P21396 whole entry): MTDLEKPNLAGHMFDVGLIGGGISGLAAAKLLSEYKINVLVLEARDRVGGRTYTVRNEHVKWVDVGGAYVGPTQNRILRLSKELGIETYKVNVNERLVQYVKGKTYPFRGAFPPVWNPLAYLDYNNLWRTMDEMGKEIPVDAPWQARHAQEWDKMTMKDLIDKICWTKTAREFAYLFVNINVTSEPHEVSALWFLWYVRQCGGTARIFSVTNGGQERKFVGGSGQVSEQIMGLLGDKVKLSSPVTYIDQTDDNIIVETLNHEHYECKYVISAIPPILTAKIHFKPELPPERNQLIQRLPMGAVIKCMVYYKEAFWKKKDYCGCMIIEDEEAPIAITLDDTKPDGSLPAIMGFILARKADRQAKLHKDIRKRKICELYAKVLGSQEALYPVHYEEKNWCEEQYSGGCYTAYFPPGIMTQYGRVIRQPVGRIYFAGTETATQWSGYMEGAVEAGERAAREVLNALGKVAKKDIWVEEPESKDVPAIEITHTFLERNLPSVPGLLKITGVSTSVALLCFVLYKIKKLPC
In words: Ability to inhibit Monoamine oxidase A enzyme.

Usually IC50 stands for the concentration that inhibits the measured activity by half. A low value points to greater potency in that assay. For `Nc1ccc(-c2cc3c(nn2)-c2ccccc2C3=O)cc1`, the concentration for half-maximal inhibition (IC50) is 24.7 µM in test [1] and 36.8 µM in test [2].

In the case of `O=C1c2ccccc2-c2nncc(Cc3ccccc3)c21`, the half-maximal inhibitory concentration (IC50) in test [1] and in test [2] was 50 µM each time.

With `O=C1c2ccccc2-c2nnc(-c3ccc4ccccc4c3)cc21`, the IC50 in test [2] was 10 µM.

In test [2], `O=C1c2ccccc2-c2nnc(-c3cccc(C(F)(F)F)c3)cc21` returned an IC50 of over 5 µM.

Turning to `COc1ccc(-c2cc3c(nn2)-c2ccccc2C3=O)cc1OC`, the IC50 in test [1] and in test [2] was 1 µM throughout.

Turning to `Cc1nnc2c(c1Cc1ccccc1)C(=O)c1ccccc1-2`, the results for the IC50 in test [1] and in test [2] were 83.5 µM and 100 µM, respectively.

In turn, `Cc1nnc2c(c1-c1ccccc1)C(=O)c1ccccc1-2` yielded an IC50 in test [2] of 50 µM.

In test [2], `COc1ccc2c(c1)C(=O)c1cc(-c3cccc(C(F)(F)F)c3)nnc1-2` gave an IC50 of 5 µM.

For `O=C1c2ccccc2-c2nnc(-c3ccccc3)c(Cc3ccccc3)c21`, in test [2], the IC50 is over 10 µM.

Turning to `O=C1c2ccccc2-c2nnc3c(c21)-c1ccccc1CC3`, the IC50 in test [1] and in test [2] was 50 µM in each case.

As to `CCOC(=O)c1c(-c2ccccc2)nnc2c1C(=O)c1ccccc1-2`, the IC50 was 5.3 µM in test [1] and over 50 µM in test [2].

As to `O=C1c2ccccc2-c2nnc(-c3ccc(F)c(F)c3)cc21`, the IC50 in test [2] was 1 µM.

As for `O=C(O)c1ccc(-c2cc3c(nn2)-c2ccccc2C3=O)cc1`, the concentration for half-maximal inhibition (IC50) in test [1] and in test [2] was 100 µM each time.

With `Cc1c(-c2ccccc2)nnc2c1C(=O)c1ccccc1-2`, the IC50 is over 100 µM in test [1] and 100 µM in test [2].

`O=C1c2ccccc2-c2nnc(-c3ccc(Cl)cc3)cc21` gave an IC50 in test [2] of over 5 µM.

On to `COc1cc(-c2cc3c(nn2)-c2ccccc2C3=O)ccc1O`, for which the IC50 in test [1] and in test [2] was 10 µM each time.

`O=C1c2ccccc2-c2nnc(-c3ccc([N+](=O)[O-])cc3)cc21` returned an IC50 in test [2] of 25 µM.

Take `O=C1c2ccccc2-c2nnc3ccc4ccccc4c3c21`: the IC50 in test [1] and in test [2] was 10 µM throughout.

Consider `O=C1c2ccccc2-c2nnc(-c3cccc4ccccc34)cc21`, for which the values for the IC50 in test [1] and in test [2] were over 5 µM and 10 µM, respectively.

For `c1ccc(-c2cc3c(nn2)-c2ccccc2C3)cc1`, inhibition in test [1] was half-maximal at 23.4 µM (IC50).

With `O=C1c2ccccc2-c2nnccc21`, the IC50 in test [1] was found to be 27.5 µM; in test [2], 97.6 µM.

In the case of `O=C1c2ccccc2-c2nnc(/C=C/c3ccccc3)cc21`, the IC50 in test [2] was over 1 µM.

Consider `Nc1cccc(-c2cc3c(nn2)-c2ccccc2C3=O)c1`, for which the IC50 in test [2] came to 25.9 µM.

`O=C1c2ccccc2-c2nnc(-c3cccc(Br)c3)cc21`: the IC50 in test [2] was 1 µM.

For `CCCCOc1ccc(-c2cc3c(nn2)-c2ccccc2C3=O)cc1`, the half-inhibitory concentration (IC50) in test [1] and in test [2] was 10 µM in each case.

For the compound `Cc1cc2c(nn1)-c1ccccc1C2=O`, in test [2], the IC50 was over 100 µM.

Regarding `O=C1c2ccccc2-c2nnc(-c3cccnc3)cc21`, the IC50 in test [1] and in test [2] was over 25 µM in each case.

As for `O=C1c2ccccc2-c2nnc(-c3ccc(Br)cc3)cc21`, the IC50 in test [2] was 1 µM.

With `COc1ccccc1-c1cc2c(nn1)-c1ccccc1C2=O`, the figures for the IC50 in test [1] and in test [2] were over 50 µM and 50 µM, respectively.

With `O=C1c2ccccc2-c2nnc(-c3ccccc3)cc21`, 25 µM corresponded to half-maximal inhibition in test [2] (IC50).

On to `O=C1c2ccccc2-c2nnc(-c3cccc(F)c3)cc21`, for which the IC50 in test [2] amounted to 10 µM.

Take `O=C1c2ccccc2-c2nnc(-c3ccccc3[N+](=O)[O-])cc21`: the IC50 in test [2] is 100 µM.

`COc1ccc(-c2cc3c(nn2)-c2ccccc2C3=O)cc1` registered an IC50 in test [2] of 10 µM.

As to `CC(=O)c1ccc(-c2cc3c(nn2)-c2ccccc2C3=O)cc1`, the IC50 in test [2] was over 10 µM.

On to `O=C1c2ccccc2-c2nnc(-c3cccc(O)c3)cc21`, for which the IC50 in test [1] is over 1 µM; in test [2], 1 µM.

For `O=C1c2ccccc2-c2nnc(-c3ccccc3Cl)cc21`, the IC50 in test [2] was over 50 µM.

For `O=C1c2ccccc2-c2nnc(-c3ccccc3O)cc21`, the IC50 in test [1] was over 1 µM; in test [2] it was 1 µM.

In the case of `O=C1c2ccccc2-c2nnc(-c3ccccc3F)cc21`, the half-maximal inhibitory concentration (IC50) in test [1] was 18.1 µM; in test [2] it was over 20 µM.

On to `O=C1c2ccccc2-c2nnc(-c3ccccn3)cc21`, for which the IC50 in test [1] was over 25 µM; in test [2], 25 µM.

Take `O=C1c2ccccc2-c2nnc3ccccc3c21`: the IC50 in test [1] and in test [2] was 1 µM throughout.

For the compound `O=C1c2ccccc2-c2nnc(-c3ccc(N4CCCCC4)cc3)cc21`, the IC50 in test [1] and in test [2] was 1 µM throughout.

`O=C1c2ccccc2-c2nnc(-c3cccs3)cc21`: the IC50 in test [1] and in test [2] was 1 µM throughout.

For `CC(=O)Nc1ccc(-c2cc3c(nn2)-c2ccccc2C3=O)cc1`, the IC50 in test [1] and in test [2] was over 10 µM throughout.

Consider `O=C1c2ccccc2-c2nnc(-c3ccc(C(F)(F)F)cc3)cc21`, for which, in test [2], the half-inhibitory concentration (IC50) worked out at 1 µM.

`N#Cc1ccc(-c2cc3c(nn2)-c2ccccc2C3=O)cc1` yielded an IC50 in test [2] of 25 µM.

On to `O=C1c2ccccc2-c2nnc(C(F)(F)F)cc21`, for which the IC50 was over 25 µM in test [1] and 25 µM in test [2].

On to `O=C1c2ccccc2-c2nnc(-c3ccco3)cc21`, for which the IC50 in test [2] is over 50 µM.

As for `O=C1c2ccccc2-c2nnc(-c3cccc([N+](=O)[O-])c3)cc21`, the IC50 in test [1] was over 0.5 µM; in test [2], 1 µM.

For `N#Cc1cccc(-c2cc3c(nn2)-c2ccccc2C3=O)c1`, the IC50 in test [2] is over 10 µM.

Consider `O=C1c2ccccc2-c2nnc(-c3ccccc3C(F)(F)F)cc21`, for which the IC50 in test [1] and in test [2] was 10 µM in each case.

Take `O=C1c2ccccc2-c2nnc3c(c21)CCCC3`: the IC50 in test [1] came to 100 µM; in test [2], 50.5 µM.

Regarding `O=C1c2ccccc2-c2nnc(-c3cc(C(F)(F)F)cc(C(F)(F)F)c3)cc21`, the IC50 in test [1] is over 2 µM; in test [2], 1 µM.

As for `COc1cccc(-c2cc3c(nn2)-c2ccccc2C3=O)c1`, the IC50 in test [2] was determined as 50 µM.

As for `Cc1ccccc1-c1cc2c(nn1)-c1ccccc1C2=O`, 10 µM corresponded to half-maximal inhibition in test [2] (IC50).

`O=C1c2ccccc2-c2nnc(-c3ccc(O)cc3)cc21` returned an IC50 in test [2] of over 50 µM.

Turning to `O=C(O)CCc1cc2c(nn1)-c1ccccc1C2=O`, the IC50 in test [1] and in test [2] was 100 µM each time.

On to `O=C(c1ccccc1)c1cc2c(nn1)-c1ccccc1C2=O`, for which the IC50 in test [1] is 16.1 µM; in test [2], over 50 µM.

The compound `O=C1c2ccccc2-c2nnc(-c3cccc(Cl)c3)cc21` yielded an IC50 in test [2] of over 5 µM.

In test [2], `O=C1c2ccccc2-c2nnc(CCc3ccccc3)cc21` yielded an IC50 of 50 µM.

`O=C1c2ccccc2-c2nnc(Cc3ccccc3)cc21` displayed an IC50 in test [2] of 100 µM.

With `O=C1c2cc(O)ccc2-c2nnc(-c3cccc(C(F)(F)F)c3)cc21`, the IC50 in test [1] was found to be 5.1 µM; in test [2] it was 5 µM.

As for `O=C1c2ccccc2-c2nnc(-c3cc(Cl)cc(Cl)c3)cc21`, the IC50 in test [1] was 0.71 µM; in test [2] it was 1 µM.

On to `O=C1c2ccccc2-c2nncc(-c3ccccc3)c21`, for which the IC50 is 93.7 µM in test [1] and 34.3 µM in test [2].

In turn, `O=C1c2ccccc2-c2nnc(-c3ccc(F)cc3)cc21` yielded a half-inhibitory concentration (IC50) in test [2] of 30.6 µM.

`O=C(c1ccccc1)c1c(-c2ccccc2)nnc2c1C(=O)c1ccccc1-2`: the values for the IC50 in test [1] and in test [2] were 7.7 µM and 10 µM, respectively.

Turning to `O=C1c2ccccc2-c2nnc3c(c21)CCc1ccccc1-3`, the IC50 in test [1] and in test [2] was 50 µM each time.
